From publication PMC9394284, “Discovery of Novel Dual Adenosine A2A and A1 Receptor Antagonists with 1H-Pyrazolo[3,4-d]pyrimidin-6-amine Core Scaffold as Anti-Parkinson’s Disease Agents” (Pharmaceuticals, 2022)
Entries after “also recorded” stand apart in the source; their conditions may differ.

Assays:
A3 receptors = target: T1, A3 receptors (Homo sapiens, UniProt P0DMS8); assay: radioligand binding to human A3 receptors, CHO-K1 membranes, [125I]AB-MECA
T1 construct: purchased PerkinElmer ES-012-M
T1 sequence (P0DMS8 1-318): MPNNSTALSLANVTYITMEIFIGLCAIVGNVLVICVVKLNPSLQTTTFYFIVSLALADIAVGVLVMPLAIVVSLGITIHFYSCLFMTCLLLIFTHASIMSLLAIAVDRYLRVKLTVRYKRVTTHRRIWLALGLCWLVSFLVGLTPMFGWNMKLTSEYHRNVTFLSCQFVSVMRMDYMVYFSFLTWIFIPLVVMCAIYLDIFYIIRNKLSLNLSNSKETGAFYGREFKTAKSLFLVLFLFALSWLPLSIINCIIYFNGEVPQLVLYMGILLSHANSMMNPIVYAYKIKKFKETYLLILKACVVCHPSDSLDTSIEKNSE
Protocol: The radioligand-binding assays for adenosine receptors were performed at Eurofins Discovery Services (Panlabs, Taiwan). Briefly, stock solutions of the compounds were prepared in DMSO and further diluted with the incubation buffer to the desired concentration. Final DMSO concentrations in the assay were 1.0%. For adenosine A1 screening, a 10 μg aliquots of membrane preparations from human recombinant CHO-K1 cells stably expressing A1 receptors (CHO-K1-hA1AR clone3, EPDST, R200510) were incubated with 1 nM [^3H]DPCPX in incubation buffer (20 mM HEPES, pH 7.4, 10 mM MgCl2, 100 mM NaCl 1.40 nM) for 90 min at 25 °C. Nonspecific binding was estimated in the presence of 100 μM R(-)-PIA. Membranes were filtered and washed 3 times and the filters were counted to determine specifically bound [^3H]DPCPX. Chemical compounds were screened at 10 μM. For A2A screening, membrane preparations from human recombinant HEK-293 cells stably expressing A2A receptors (PerkinElmer, RBHA2AM) were incubated with 0.05 μM [^3H]CGS-21680 in incubation buffer (50 mM Tris-HCl, pH 7.4, 10 mM MgCl2, 1 mM EDTA, 2 U/mL Adenosine Deaminase) for 90 min at 25 °C. Nonspecific binding was estimated in the presence of 50.0 μM NECA. Membranes were filtered and washed 3 times and the filters were counted to determine [^3H]CGS-21680 specifically bound. […] Membranes were filtered and washed 3 times and the filters were counted to determine [^3H]MRS1754 specifically bound. […]
IC50 values were determined by a nonlinear, least-squares regression analysis using MathIQ^TM (ID Business Solutions Ltd., Guildford, UK). Where inhibition constants (Ki) were presented, the Ki values were calculated using Cheng and Prusoff equation [18] using the observed IC50 of the compound, the concentration of radioligand employed in the assay, and the historical values for the KD of the ligand (obtained experimentally at Eurofins Panlabs, Inc.). The Hill coefficient (nH), which defines the slope of the competitive binding curve, was calculated using MathIQ^TM.

TA98 and TA100 = assay: AMES bacterial reverse-mutation test; assay type: cell-based; details: up to 1867 μg/plate; TA98 and TA100, with and without S9
Protocol: The mutagenic potential of 11o was also tested by assessing its ability to reverse mutations in a bacterial mutagenesis study.
AMES bacterial reverse-mutation test was performed at Frontage laboratories inc. (Frontage laboratories, Concord, OH, USA) according to testing facility’s standard operating procedures (SOPs) following OECD guideline 471, “Bacterial Reverse Mutation Test”, and ICH S2(R1), “Guidance on Genotoxicity Testing and Data Interpretation for Pharmaceuticals Intended for Human Use”[19]. Briefly, test system was exposed to test article via plate-incorporation methodology originally described by Ames et al. and updated by Maron and Ames. […] For mutagenicity assay, TA98 and TA100 (tester strains source: Molecular Toxicology Inc. (Boone, NC, USA). TA98 lot number 5464D, part number 71–098L; TA100 lot number 5439D, part number 71–100L) was exposed to vehicle alone and at least 8 concentrations of 11o, with duplicate plates/condition, in both the presence and absence of S9 using the plate incorporation method. […] Following incubation, plates were examined for the condition of the bacterial background lawn and precipitate and recorded. Colonies were enumerated either by visually or by an automatic colony counter (Scan 1200 Automated colony counter and scan software).

[1] = average of duplicate experiments

SMILES: Cc1cc(Cn2ncc3c(-c4cccc(C#N)c4F)nc(N)nc32)ccc1N [11o, 3-(6-Amino-1-(4-amino-3-methylbenzyl)-1H-pyrazolo[3,4-d]pyrimidin-4-yl)-2-fluorobenzonitrile]
- nH (Hill coefficient), A3 (A3 receptors): 0.44
- IC50 (A3 receptors; [1]): 1130 nM
- Ki (A3 receptors; [1]): 1050 nM
- AMES mutagenicity (TA98 and TA100): did not cause any positive mutagenic response; also recorded: no mutagenicity up to 1867 μg/plate
